Laboratory results as given in patent US20240327787A1, “CULTURE MEDIUM, COATING MATRIX AND METHOD FOR EXPANDING MIDBRAIN DOPAMINERGIC PROGENITOR CELLS” (NUWACELL BIOTECHNOLOGIES CO., LTD., priority 2022, published 2024).
Counter-ions that a name gives are not always drawn.

Tested on: imDAPs
Experiment: Flow cytometry analysis of FOXA2 expression in expanded imDAPs
Assay type: cell-based, human
Settings: VTN-coated
Procedure: 1. Individualize and collect cells by either Accutase or TrypLE treatment.
2. Wash cells with 1 ml PBS and pellet cells at 250×g for 15 sec.
3. Remove supernatant, add ˜200 μl of 4% PFA, mix and fix for 10 min at RT.
4. Pellet cells at 350×g for 5 min.
5. Wash cells by 1 ml of FACS buffer and pellet cells at 350×g for 5 min.
6. Remove supernatant, add 200 μl/tube of FACS buffer/0.1% TritonX, mix for 10 min at RT.
7. Wash cells by 1 ml of FACS buffer and pellet cells at 350×g for 5 min.
8. Remove supernatant, add 200 μl/tube of primary antibody diluted in FACS buffer, mix gently, and incubate for 30 min at RT.
9. Wash cells by 1 ml of FACS buffer and pellet cells at 350×g for 5 min.
10. Remove supernatant, and add 200 μl of secondary antibody diluted in FACS buffer, mix gently, and incubate for 30 min at RT.
11. Wash cells by 1 ml of FACS buffer and pellet cells at 300×g for 5 min.
12. Remove supernatant, add 200 μl of FACS buffer, and run samples on the flow cytometry.
imDAPs were produced according to the method described in CN201910169525.0. The imDAPs (P0) were seeded on VTN-coated plates (1 μg/cm^2) at a low density of 1×10^4 cells/cm^2, and cultured in the expansion medium (50% DMEM/F12, 50% Neurobasal™ medium, 1% (v/v) Glutamax, 2% (v/v) B27 (50×), 0.2 μM LDN193189, 3 μM CHIR99021, 100 ng/mL FGF8b) with either 5 μM Blebbistatin or 10 μM Y27632. Medium was replaced every 3rd day. At Day 6, cells were collected for FACS analysis.
imDAPs were produced according to the method described in CN201910169525.0. The imDAPs (P0) were seeded on DLL4-coated (1 μg/cm^2), VTN-coated (1 μg/cm^2) and DLL4/VTN-coated (1 μg/cm^2 for each) plates at a low density of 1×10^4 cells/cm^2 respectively, and cultured in the expansion medium in the absence or presence of 5 μM SB431542. Medium was replaced every 3rd day until reaching 100% confluence (6 days) for cell collection. The typical cell morphology on day 4 was recorded (FIG. 4A). The cell number of each group was counted by Vi-cell cytometer (FIG. 4B). The cells of each group were stained with Foxa2-PE antibody (BD, #561589), the percentage of Foxa2+ imDAPs were analyzed by flow cytometry (FIG. 4C). The expansion medium used in this example contained the following components: 50% DMEM/F12, 50% Neurobasal™ medium, 1% (v/v) Glutamax, 1% (v/v) B27, 50 μg/ml ascorbic acid, 0.2 μM LDN193189, 100 ng/ml FGF8b, 3 μM CHIR99021 and 10 µM Y27632.
imDAPs were produced according to the method described in CN201910169525.0. The imDAPs (P0) were seeded on DLL4/VTN-coated (1 μg/cm^2 for each) plates at a low density of 1×10^4 cells/cm^2, and cultured in the expansion medium (EM1, EM2, EM3, EM4). Medium was replaced every 3rd day until reaching 100% confluence (6 days) for cell collection. EM1 used in Example 9 contained the following components: 50% DMEM/F12, 50% Neurobasal™ medium, 1% (v/v) Glutamax, 1% (v/v) B27 (50×), 50 μg/ml ascorbic acid, 3 μM CHIR99021, 5 μM SB431542 and 10 μM Y27632. EM2 used in Example 9 contained the following components: 50% DMEM/F12, 50% Neurobasal™ medium, 1% (v/v) Glutamax, 1% (v/v) B27 (50×), 50 μg/ml ascorbic acid, 0.2 μM LDN193189, 3 μM CHIR99021, 5 μM SB431542 and 10 μM Y27632. EM3 used in Example 9 contained the following components: 50% DMEM/F12, 50% Neurobasal™ medium, 1% (v/v) Glutamax, 1% (v/v) B27 (50×), 50 μg/mL ascorbic acid, 0.2 μM LDN193189, 100 ng/ml FGF8b, 3 μM CHIR99021, 5 μM SB431542 and 10 μM Y27632. […]

SMILES: C[C@@H](N)[C@H]1CC[C@H](C(=O)Nc2ccncc2)CC1 [Y27632, (R)-(+)-trans-4-(1-aminoethyl)-N-(4-pyridyl) cyclohexanecarboxamide dihydrochloride]
- percentage of Foxa2-expressing cells (FIG. 2) (10 μM Y27632 vs 5 μM Blebbistatin in expansion medium, 1×10^4 cells/cm^2, Day 6): capable of improving the percentage of Foxa2-expressing cells than Blebbistatin
- percentage of Foxa2-expressing cells during passages (expansion medium with 10 μM Y27632): still decreased during passages
